Test results from ChEMBL document CHEMBL5291721, “A preclinical secondary pharmacology resource illuminates target-adverse drug reaction associations of marketed drugs” (Nat Commun, 2023).

What was measured:
Glucocorticoid receptor = biological target: T1, Glucocorticoid receptor (Homo sapiens, UniProt P04150)
T1 sequence (P04150 whole entry): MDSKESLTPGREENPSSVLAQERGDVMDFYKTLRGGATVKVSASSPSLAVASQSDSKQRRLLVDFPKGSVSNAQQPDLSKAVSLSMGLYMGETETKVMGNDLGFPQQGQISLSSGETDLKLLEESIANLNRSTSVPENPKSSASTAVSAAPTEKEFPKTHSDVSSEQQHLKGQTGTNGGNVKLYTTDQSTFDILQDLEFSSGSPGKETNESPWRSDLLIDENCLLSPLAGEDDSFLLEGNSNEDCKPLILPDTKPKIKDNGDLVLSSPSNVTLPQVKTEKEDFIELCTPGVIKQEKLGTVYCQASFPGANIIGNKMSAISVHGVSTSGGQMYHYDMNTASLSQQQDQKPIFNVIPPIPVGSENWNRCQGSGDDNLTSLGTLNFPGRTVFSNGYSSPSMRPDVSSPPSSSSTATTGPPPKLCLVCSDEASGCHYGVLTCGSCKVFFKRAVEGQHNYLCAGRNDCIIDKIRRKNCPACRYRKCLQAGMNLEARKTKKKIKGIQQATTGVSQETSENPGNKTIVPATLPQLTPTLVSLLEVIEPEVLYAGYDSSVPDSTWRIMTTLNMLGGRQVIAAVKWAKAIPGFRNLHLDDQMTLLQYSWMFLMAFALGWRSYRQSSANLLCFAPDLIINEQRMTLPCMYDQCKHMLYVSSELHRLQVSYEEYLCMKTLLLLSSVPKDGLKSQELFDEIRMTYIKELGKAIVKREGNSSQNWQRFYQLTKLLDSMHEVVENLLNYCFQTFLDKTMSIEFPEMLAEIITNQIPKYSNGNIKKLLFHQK

[1] = biological target: 5-hydroxytryptamine receptor 2B (Homo sapiens, UniProt P41595); assay type: functional, cell-based
Sequence of 5-hydroxytryptamine receptor 2B (P41595 whole entry): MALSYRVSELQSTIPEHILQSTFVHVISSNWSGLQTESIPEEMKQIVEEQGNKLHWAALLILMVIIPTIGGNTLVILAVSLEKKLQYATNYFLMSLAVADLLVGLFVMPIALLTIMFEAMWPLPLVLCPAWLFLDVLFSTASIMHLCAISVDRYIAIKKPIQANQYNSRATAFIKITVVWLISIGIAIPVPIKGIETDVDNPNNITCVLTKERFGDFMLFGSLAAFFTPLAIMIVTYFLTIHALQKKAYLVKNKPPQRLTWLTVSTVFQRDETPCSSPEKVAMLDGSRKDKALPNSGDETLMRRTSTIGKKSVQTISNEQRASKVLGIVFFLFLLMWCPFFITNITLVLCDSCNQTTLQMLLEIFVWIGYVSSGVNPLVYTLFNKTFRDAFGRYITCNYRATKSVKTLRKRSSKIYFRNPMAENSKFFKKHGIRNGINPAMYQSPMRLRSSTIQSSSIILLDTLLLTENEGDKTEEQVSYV

[2] = biological target: T2, Alpha-2C adrenergic receptor (Homo sapiens, UniProt P18825); assay type: functional
T2 sequence (P18825 whole entry): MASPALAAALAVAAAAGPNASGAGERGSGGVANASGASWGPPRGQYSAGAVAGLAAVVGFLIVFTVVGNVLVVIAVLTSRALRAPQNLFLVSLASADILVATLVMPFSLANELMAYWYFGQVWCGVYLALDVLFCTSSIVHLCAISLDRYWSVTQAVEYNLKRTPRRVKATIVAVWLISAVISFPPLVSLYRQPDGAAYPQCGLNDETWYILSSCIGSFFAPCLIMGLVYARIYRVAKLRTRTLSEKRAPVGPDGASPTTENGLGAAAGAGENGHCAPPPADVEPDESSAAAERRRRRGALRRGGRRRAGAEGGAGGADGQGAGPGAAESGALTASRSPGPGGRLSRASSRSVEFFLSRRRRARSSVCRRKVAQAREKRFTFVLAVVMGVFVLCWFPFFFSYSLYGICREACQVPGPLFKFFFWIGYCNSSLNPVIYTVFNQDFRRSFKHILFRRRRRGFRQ

Progesterone receptor = biological target: T3, Progesterone receptor (Homo sapiens, UniProt P06401); assay type: functional
T3 sequence (P06401 whole entry): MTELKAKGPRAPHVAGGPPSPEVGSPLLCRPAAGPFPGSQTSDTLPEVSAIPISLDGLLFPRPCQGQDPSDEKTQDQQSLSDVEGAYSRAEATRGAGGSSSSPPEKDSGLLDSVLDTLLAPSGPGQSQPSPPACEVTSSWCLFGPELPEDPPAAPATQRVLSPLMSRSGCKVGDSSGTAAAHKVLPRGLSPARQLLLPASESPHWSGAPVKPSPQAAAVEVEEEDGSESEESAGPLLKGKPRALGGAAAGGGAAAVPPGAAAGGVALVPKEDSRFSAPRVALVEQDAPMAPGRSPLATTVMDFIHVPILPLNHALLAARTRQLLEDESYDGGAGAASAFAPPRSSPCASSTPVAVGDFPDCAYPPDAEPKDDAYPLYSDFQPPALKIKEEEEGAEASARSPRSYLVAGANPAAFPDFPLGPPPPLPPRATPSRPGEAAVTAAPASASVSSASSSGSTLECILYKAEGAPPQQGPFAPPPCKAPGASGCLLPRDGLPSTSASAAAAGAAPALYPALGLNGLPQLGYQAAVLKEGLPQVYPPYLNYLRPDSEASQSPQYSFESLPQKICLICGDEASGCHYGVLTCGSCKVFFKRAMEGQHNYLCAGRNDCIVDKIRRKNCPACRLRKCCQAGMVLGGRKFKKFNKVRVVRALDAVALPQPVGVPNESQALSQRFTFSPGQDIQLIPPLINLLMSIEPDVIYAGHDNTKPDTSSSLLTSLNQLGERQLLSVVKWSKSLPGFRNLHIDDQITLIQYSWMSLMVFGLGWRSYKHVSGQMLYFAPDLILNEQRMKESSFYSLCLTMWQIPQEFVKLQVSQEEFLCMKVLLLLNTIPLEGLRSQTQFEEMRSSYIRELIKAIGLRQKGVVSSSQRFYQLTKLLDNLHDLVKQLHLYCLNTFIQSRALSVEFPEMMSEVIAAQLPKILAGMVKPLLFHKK

[3] = biological target: T4, Neuropeptide Y receptor type 1 (Homo sapiens, UniProt P25929)
T4 sequence (P25929 whole entry): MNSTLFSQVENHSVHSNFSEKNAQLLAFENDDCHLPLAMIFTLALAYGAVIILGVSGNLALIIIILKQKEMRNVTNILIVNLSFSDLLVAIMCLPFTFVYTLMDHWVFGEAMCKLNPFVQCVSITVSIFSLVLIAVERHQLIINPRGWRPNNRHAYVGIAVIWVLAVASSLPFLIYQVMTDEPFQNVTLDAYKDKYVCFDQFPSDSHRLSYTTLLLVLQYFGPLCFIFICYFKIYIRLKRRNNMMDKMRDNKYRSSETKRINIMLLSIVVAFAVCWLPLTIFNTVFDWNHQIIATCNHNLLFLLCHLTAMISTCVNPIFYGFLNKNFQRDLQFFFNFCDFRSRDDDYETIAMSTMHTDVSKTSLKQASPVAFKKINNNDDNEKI

Vasopressin V2 receptor = Vasopressin V2 receptor (Homo sapiens, UniProt P30518)
Sequence of Vasopressin V2 receptor (P30518 whole entry): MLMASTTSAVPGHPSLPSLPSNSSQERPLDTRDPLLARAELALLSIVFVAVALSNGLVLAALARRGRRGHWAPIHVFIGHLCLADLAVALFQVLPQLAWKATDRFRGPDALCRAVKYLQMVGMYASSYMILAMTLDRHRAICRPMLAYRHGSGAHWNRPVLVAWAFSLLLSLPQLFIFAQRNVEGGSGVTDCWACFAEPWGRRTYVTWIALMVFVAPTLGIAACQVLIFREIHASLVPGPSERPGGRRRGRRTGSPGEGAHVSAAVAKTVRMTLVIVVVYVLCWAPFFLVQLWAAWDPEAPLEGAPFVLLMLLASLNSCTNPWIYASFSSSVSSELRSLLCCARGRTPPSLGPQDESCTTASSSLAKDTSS

[4] = biological target: cGMP-inhibited 3',5'-cyclic phosphodiesterase 3A (Homo sapiens, UniProt Q14432); assay type: functional
Sequence of cGMP-inhibited 3',5'-cyclic phosphodiesterase 3A (Q14432 whole entry): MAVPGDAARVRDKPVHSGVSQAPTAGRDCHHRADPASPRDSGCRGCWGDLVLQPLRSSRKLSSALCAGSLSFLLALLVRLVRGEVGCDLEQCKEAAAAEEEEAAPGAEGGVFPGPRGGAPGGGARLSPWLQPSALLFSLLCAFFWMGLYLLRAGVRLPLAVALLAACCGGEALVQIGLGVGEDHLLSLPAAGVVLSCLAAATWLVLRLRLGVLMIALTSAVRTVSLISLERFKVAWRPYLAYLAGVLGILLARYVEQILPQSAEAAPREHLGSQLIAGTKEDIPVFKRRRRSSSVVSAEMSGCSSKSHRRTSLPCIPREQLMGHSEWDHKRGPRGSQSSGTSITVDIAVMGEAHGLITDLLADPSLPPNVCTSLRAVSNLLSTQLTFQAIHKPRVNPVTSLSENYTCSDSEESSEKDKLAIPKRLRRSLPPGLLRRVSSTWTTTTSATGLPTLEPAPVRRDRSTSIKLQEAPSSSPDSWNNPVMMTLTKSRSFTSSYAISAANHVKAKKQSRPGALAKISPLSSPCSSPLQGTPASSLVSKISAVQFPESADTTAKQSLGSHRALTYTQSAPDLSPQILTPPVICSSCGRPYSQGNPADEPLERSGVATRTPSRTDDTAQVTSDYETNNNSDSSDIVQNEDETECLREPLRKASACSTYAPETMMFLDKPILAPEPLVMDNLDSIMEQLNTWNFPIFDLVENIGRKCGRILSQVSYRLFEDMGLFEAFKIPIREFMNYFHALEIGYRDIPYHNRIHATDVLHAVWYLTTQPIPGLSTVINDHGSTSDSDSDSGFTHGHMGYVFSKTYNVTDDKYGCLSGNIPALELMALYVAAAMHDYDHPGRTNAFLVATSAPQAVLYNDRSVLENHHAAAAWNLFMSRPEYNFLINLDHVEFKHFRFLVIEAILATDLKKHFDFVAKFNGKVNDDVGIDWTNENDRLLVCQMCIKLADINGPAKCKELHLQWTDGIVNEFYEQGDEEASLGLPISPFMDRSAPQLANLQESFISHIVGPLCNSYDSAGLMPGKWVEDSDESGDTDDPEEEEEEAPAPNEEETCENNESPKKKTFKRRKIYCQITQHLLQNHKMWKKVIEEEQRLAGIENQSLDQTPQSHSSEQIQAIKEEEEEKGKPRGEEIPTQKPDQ

[5] = biological target: Sodium-dependent noradrenaline transporter (Homo sapiens, UniProt P23975)
Sequence of Sodium-dependent noradrenaline transporter (P23975 whole entry): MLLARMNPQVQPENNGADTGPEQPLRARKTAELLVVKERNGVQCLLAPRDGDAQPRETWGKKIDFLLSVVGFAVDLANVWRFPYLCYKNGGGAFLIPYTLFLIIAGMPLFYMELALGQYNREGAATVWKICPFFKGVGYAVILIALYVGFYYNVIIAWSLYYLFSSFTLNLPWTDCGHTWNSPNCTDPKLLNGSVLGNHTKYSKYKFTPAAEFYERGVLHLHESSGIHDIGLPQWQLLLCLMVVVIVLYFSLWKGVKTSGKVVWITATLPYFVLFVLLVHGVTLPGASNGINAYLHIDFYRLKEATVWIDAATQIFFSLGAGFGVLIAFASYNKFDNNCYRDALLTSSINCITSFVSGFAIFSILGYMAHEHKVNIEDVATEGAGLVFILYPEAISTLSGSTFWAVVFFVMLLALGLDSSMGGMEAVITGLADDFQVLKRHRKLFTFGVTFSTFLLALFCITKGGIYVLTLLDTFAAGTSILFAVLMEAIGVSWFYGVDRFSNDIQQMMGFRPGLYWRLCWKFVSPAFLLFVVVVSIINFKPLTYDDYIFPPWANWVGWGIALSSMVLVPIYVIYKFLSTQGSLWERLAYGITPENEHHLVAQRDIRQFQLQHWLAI

[6] = biological target: Kappa-type opioid receptor (Homo sapiens, UniProt P41145)
Sequence of Kappa-type opioid receptor (P41145 whole entry): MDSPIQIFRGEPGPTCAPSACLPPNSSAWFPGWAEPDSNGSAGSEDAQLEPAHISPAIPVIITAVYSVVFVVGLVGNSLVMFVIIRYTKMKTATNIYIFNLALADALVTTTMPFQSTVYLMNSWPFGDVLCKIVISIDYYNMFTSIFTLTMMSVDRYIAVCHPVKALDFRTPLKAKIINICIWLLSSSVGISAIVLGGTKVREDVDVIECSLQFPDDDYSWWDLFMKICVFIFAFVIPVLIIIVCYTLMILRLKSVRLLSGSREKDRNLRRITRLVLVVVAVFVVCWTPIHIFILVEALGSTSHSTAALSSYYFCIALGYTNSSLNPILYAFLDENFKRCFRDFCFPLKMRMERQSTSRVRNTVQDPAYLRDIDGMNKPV

[7] = biological target: Growth hormone secretagogue receptor type 1 (Homo sapiens, UniProt Q92847)
Sequence of Growth hormone secretagogue receptor type 1 (Q92847 whole entry): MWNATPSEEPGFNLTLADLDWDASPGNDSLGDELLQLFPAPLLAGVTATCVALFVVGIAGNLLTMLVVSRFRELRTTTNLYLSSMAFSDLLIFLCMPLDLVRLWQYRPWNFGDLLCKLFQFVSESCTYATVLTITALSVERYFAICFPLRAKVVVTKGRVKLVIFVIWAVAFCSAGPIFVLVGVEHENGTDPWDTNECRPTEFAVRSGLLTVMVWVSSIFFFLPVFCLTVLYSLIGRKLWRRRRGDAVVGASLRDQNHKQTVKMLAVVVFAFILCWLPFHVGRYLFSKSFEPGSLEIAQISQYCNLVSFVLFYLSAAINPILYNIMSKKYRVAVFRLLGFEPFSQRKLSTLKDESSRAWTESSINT
Also: assay procedure not described here.

| Structure (SMILES) | AC50 (Glucocorticoid receptor) [µM] | AC50 [1] [µM] | AC50 [2] [µM] | AC50 (Progesterone receptor) [µM] | AC50 [3] [µM] | AC50 (Vasopressin V2 receptor) [µM] | AC50 [4] [µM] | AC50 [5] [µM] | AC50 [6] [µM] | AC50 [7] [µM] |
| --- | --- | --- | --- | --- | --- | --- | --- | --- | --- | --- |
| CCC(NC(C)C)C(O)c1ccc(O)c2[nH]c(=O)ccc12 (stereo not given) [PROCATEROL] | > 30 | > 30 | > 30 | > 30 | > 30 | > 30 | > 30 | > 30 | > 30 | > 30 |
| CCc1nc(N)nc(N)c1-c1ccc(Cl)cc1 [PYRIMETHAMINE] | > 10 | 37 | > 30 | > 10 | > 10 | > 10 | > 30 | > 30 | > 30 | > 10 |
| C=CC[N+]1([C@H]2C[C@H]3[C@@H]4CC[C@H]5C[C@H](O)[C@@H](N6CCOCC6)C[C@]5(C)[C@H]4CC[C@]3(C)[C@H]2OC(C)=O)CCCC1 [ROCURONIUM] | > 30 | > 30 | > 30 | > 30 | > 30 | > 30 | > 30 | > 30 | > 30 | > 30 |
| Cc1cc(C)nc(NS(=O)(=O)c2ccc(N)cc2)n1 [SULFAMETHAZINE] | > 10 | > 10 | > 30 | > 10 | > 10 | > 10 | > 30 | > 10 | > 10 | > 10 |
| CC(C)(C)NCC(O)c1ccccc1Cl (stereo not given) [TULOBUTEROL] | > 30 | > 30 | > 30 | > 30 | > 30 | > 30 | > 30 | > 30 | > 30 | > 30 |

Other lines, results leading:

| AC50 (Glucocorticoid receptor) [µM] | AC50 [1] [µM] | AC50 [2] [µM] | AC50 (Progesterone receptor) [µM] | AC50 [3] [µM] | AC50 (Vasopressin V2 receptor) [µM] | AC50 [4] [µM] | AC50 [5] [µM] | AC50 [6] [µM] | AC50 [7] [µM] | Structure (SMILES) |
| --- | --- | --- | --- | --- | --- | --- | --- | --- | --- | --- |
| > 30 | > 30 | 4.5 | > 30 | > 30 | > 30 | > 30 | > 30 | > 30 | > 30 | CCN1CCCC1CNC(=O)c1cc(S(=O)(=O)CC)ccc1OC (stereo not given) [SULTOPRIDE] |
| > 30 | > 30 | 0.71 | > 30 | > 30 | > 30 | > 30 | > 30 | 17 | > 30 | C=CCN1CCc2nc(N)sc2CC1 [TALIPEXOLE] |
| 23 | > 30 | 22 | > 30 | > 30 | > 30 | > 30 | 16 | > 30 | 28 | CCOC(=O)[C@@H](N)Cc1ccc(-c2cc(O[C@H](c3ccc(Cl)cc3-n3ccc(C)n3)C(F)(F)F)nc(N)n2)cc1 [TELOTRISTAT ETHYL] |
| > 30 | > 30 | > 30 | > 30 | > 30 | > 30 | > 30 | > 30 | > 30 | > 30 | Cn1c(=O)c2c(ncn2CCOC(=O)C(C)(C)Oc2ccc(Cl)cc2)n(C)c1=O [THEOFIBRATE] |
| > 30 | > 30 | > 30 | > 30 | > 30 | > 30 | > 30 | > 30 | 16 | > 30 | COc1cc(C(=O)NC2CCCNC2)cc(OC)c1OC (stereo not given) [TROXIPIDE] |
| > 30 | > 30 | > 30 | > 30 | > 30 | > 30 | > 30 | > 30 | 24 | > 30 | CC(C(=O)O)c1ccc2c(c1)CC(=O)c1ccccc1S2 (stereo not given) [ZALTOPROFEN] |
| > 30 | > 10 | > 10 | > 30 | > 10 | > 10 | > 30 | > 10 | > 10 | > 10 | CC(c1cc2ccccc2s1)N(O)C(N)=O (stereo not given) [ZILEUTON] |
